How the values were obtained:
TRPC6 = settings: lung tissue of IPAH patients; cited from earlier work
PASMC = settings: cited from earlier work
[1] = Phase 1 study, healthy adults; cited from earlier work
[2] = system: LPS-induced vascular leakage; experiment: Reduction of LPS-induced vascular leakage in a mouse model (BALF protein); settings: FIGS. 1A, 1B and 1C; LPS aerosol mouse model
[3] = system: virus Influenza A (strain: PR8/34/H1N1); experiment: Reduction of H1N1-induced vascular leakage in a mouse model (BALF Evans blue); assay type: in vivo, Mice; settings: 3 mg/kg p.o., 2 h after inoculation and once daily day 1 to day 4; day 6 after inoculation
Protocol: Mice were inoculated intranasally with 200 PFU (Plaque Formation Unit) of virus Influenza A (strain: PR8/34/H1N1). […] was given at 3 mg/kg p.o. 2 h after inoculation and once daily from day 1 to day 4. Evans blue was injected intravenously on day 6, 30 min prior to the euthanasia. […] The supernatant was collected for the measurement of Evans blue by spectrophotometry at the absorbance of 620 nm
At day 6 after inoculation, H1N1 induced lung vascular leakage characterized by an increase in Evans blue extravasation from the blood to the BALF.

Structure (SMILES): COc1ccccc1Oc1c(NS(=O)(=O)c2ccc(C(C)(C)C)cc2)nc(-c2ncccn2)nc1OCCO [bosentan]
- expression of TRPC6 (TRPC6): decreases expression of TRPC6
- proliferation of PASMC (PASMC): decreases proliferation of PASMC

Structure (SMILES): COc1cc(C(=O)N2CCC(c3ccc(N)nn3)CC2)ncc1Oc1ccc(F)cc1 [BI 764198]
- tolerability [1]: well tolerated

Structure (SMILES): COc1cc(C(=O)N2CCC(c3ccc(N)nn3)CC2)ncc1Oc1ccc(F)cc1 [Compound 17, [4-(6-Amino-pyridazin-3-yl)-piperidin-1-yl]-[5-(4-fluoro-phenoxy)-4-methoxy-pyridin-2-yl]-methanone]
- pulmonary vascular leakage [2]: significantly reduces pulmonary vascular leakage
- reduction of BALF Evans blue [3]: 24%

Reference: patent US20230149393A1, “INHIBITORS OF TRPC6 FOR TREATING RESPIRATORY CONDITIONS” (Boehringer Ingelheim International GmbH, priority 2020, published 2023)
